According to PubChem BioAssay AID588688 (Southern Research Specialized Biocontainment Screening …, 2011):
Calls of active or inactive are those of the source.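 How the source made its calls: active means inhibition of 30% or more at any tested concentration; inactive means the rest.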

Molecular target: M17 leucyl aminopeptidase (Plasmodium falciparum 3D7)
Assay: Inhibition of P. falciparum M17 aminopeptidase – biochemical, QFRET, dose response (AID 588688)
Conditions: recombinant PfM17LAP, H-Leu-NHMec fluorogenic substrate cleavage; for inhibition: at 100 µM (top of the series)

Row | SMILES | IC50 [µM] | inhibition
1 | O=C(CSc1nccc(=O)[nH]1)Nc1ccc(N2CCOCC2)cc1 | 17.5 | 
2 | COc1cc(NC(=O)c2ccc(-c3ccccc3)cc2)c(C(=O)O)cc1OC |  | inactive
3 | Cc1cc(SCC(=O)Nc2ccccc2C(=O)O)nc2ccccc12 | 17.1 | 
4 | COC(=O)c1cc(OC)c(OC)cc1NC(=O)c1sc2nc(C)ccc2c1N |  | inactive
5 | CC1=C(C)CC(C(=O)Nc2nc(-c3cc(C)ccc3C)c(C)s2)C(C(=O)O)C1 (configuration not stated) | 58.8 | 
6 | N[C@@H](Cc1c[nH]c2ccccc12)C(=O)NO |  | inactive
7 | CC1=C(C)CC(C(=O)Nc2ccc(Oc3ccc(Cl)cc3)cc2)C(C(=O)O)C1 (configuration not stated) | 46.6 | 
8 | O=C(CSc1nc(O)cc(=O)[nH]1)Nc1ccccc1 | 101 | 
9 | CC(C)C[C@H](N)C(=O)NO |  | inactive
10 | NC(N)=NCCC[C@H](N)C(=O)NO |  | inactive
11 | COc1ccc(-c2nnc(NC(=O)C3CC(C)=C(C)CC3C(=O)O)s2)cc1 (configuration not stated) | 96.9 | 
12 | CC1CCc2sc(C(=O)Nc3cccc4c3C(=O)NC4)cc2C1 (configuration not stated) |  | inactive
13 | O=C(CSc1nccc(=O)[nH]1)Nc1ccc(Oc2ccccc2)cc1 | 23.6 | 
14 | Cc1ccc(NC(=O)CSc2nc(O)cc(=O)n2Cc2ccccc2)cc1 | 33.5 | 
15 | COC(=O)c1c(NC(=O)c2ccccc2C(=O)O)sc2c1CCCC2 |  | inactive
16 | O=C(O)c1ccccc1C(=O)Nc1nc2c(s1)CCCC2 |  | inactive
17 | O=C(Cc1cccc2ccccc12)NO | 6.11 | 
18 | O=C(Nc1ccc(Cl)cc1)Nc1ccccc1C(=O)O |  | inactive
19 | O=C(Cc1ccc2ccccc2c1)NO | 0.79 | 
20 | COC(=O)c1ccccc1NC(=O)c1ccc2c(Cl)c3c(nc2c1)CCC3 |  | inactive
21 | CCC(C)(C)C1CCc2c(sc(NC(=O)C3CC(C)=C(C)CC3C(=O)O)c2C(=O)OC)C1 (configuration not stated) |  | inactive
22 | COC(=O)c1c(NC(=O)C2CC=CCC2C(=O)O)sc(C)c1-c1ccc(C)cc1 (configuration not stated) | 5.13 | 
23 | O=C(CSc1ccccc1)Nc1cccc2c1C(=O)NC2=O |  | inactive
24 | CCn1c2ccccc2c2cc(NC(=O)CSc3nc(C)cc(=O)[nH]3)ccc21 | 10.8 | 
25 | COc1ccc(OCCC(=O)NO)cc1 | 65.6 | 
26 | COc1cc(NC(=O)CSc2ccccc2)c(C(=O)O)cc1OC | 25.6 | 
27 | COC(=O)c1ccccc1NC(=O)c1cc2cc3ccc(C)cc3nc2s1 |  | inactive
